# From publication PMC3199744, “Preformulation and stability in biological fluids of the retrocyclin RC-101, a potential anti-HIV topical microbicide” (AIDS Research and Therapy, 2011)
# Where two headings read alike, the source gives them in different places.
# Legend:
# [1] = Effect of pH on stability of RC-101, HPLC; assay type: physicochemical; settings: 500 μg/mL, HPLC-UV
# Experimental: For all pre-formulation studies described below, triplicate solutions of RC-101 (500 μg/mL) were prepared in either water or aqueous buffer solution. Thermal degradation studies were conducted at 25, 37, and 65°C for a minimum period of 1 week. The effect of pH on the stability of RC-101 was evaluated over the pH range from 3 to 12 using 10 mM phosphate buffer solutions, at low (50 mmol/kg) and high (500 mmol/kg) ionic strength. Oxidation of RC-101 was evaluated by exposing a solution of RC-101 to hydrogen peroxide (H2O2) at concentrations of 3.0, 0.08, and 0.002% (v/v). The high H2O2 concentration (3.0%) was selected as a forced degradation concentration. […] Protection against oxidation was investigated by the addition of antioxidants commonly used in pharmaceutical products. The antioxidants used in this study were: methionine (95.2 μg/mL or 250 μg/mL), cysteine (95.2 μg/mL), glutathione (90.9 μg/mL), vitamin E TPGS (90.9 μg/mL), ascorbic acid (1.0 mg/mL), sodium ascorbate (1.0 mg/mL), and EDTA (1.0 μg/mL).
# RC-101 concentration after exposure to preformulation conditions was analyzed by HPLC as previously described [11]. Briefly, the HPLC system (Waters Corporation, Milford, MA) was equipped with an autoinjector model 717, a quaternary pump model 600, and an ultraviolet (UV) detector model 2487 set up at 215 nm. Separation of RC-101 from degradant products was achieved using a Phenomenex Jupiter 5 μC5 300 Å (4.6 × 250 mm) column (Phenomenex, Torrance, CA) protected by a Widepore C5 (4 × 3.0 mm) guard cartridge (Phenomenex). The gradient consisted of mobile phase A (0.1% TFA in water (v/v)), and mobile phase B (0.07% TFA in acetonitrile (v/v)) pumped at a flow rate of 1.0 mL/min. Forced degraded samples (oxidation, temperature, and basic and acidic hydrolysis) were used to establish that the method could separate the degradants from the main peak.
# HPLC data obtained from the preformulation studies were expressed as the average percentage of the peak area from time 0 ± standard deviation, n = 3. Results were analyzed by one-way analysis of variance (ANOVA) with multiple comparisons of individual time points by using post hoc Bonferroni correction to detect significant differences under different conditions. P-values ≤ 0.05 were considered to be statistically significant, unless specified otherwise.
# [2] = RC-101 solution / film control in water, detection by LC-MS/MS; assay type: physicochemical; settings: 1:1 with water, 37°C, nanoLC-SRM MS, qualitative
# Experimental: RC-101 100 μg/mL solutions were prepared by dissolving RC-101 in Milli Q water. RC-101 and placebo films were prepared by precasting a polymeric film solution into an 8-well-plate. The polymeric film solution was prepared as previously described by adding Milli Q water, PVA, and hydroxypropyl methyl cellulose (HPMC). The solution was then heated at 95°C for 20 minutes for complete dissolution of the polymers. After cooling, glycerin and RC-101 were added. Film solution (2.4 g) containing RC-101 was poured into each well of the 8-well plate. The plate was placed into a vacuum oven at 30 ± 2°C for 20 ± 4 h. All dried films were removed from the plates and stored at room temperature in PET/Aluminum foil pouches (Amcor Flexibles Healthcare Inc, Mundelein, IL) until further analysis. Placebo films were prepared in the same way without the addition of RC-101. […] For analytical purposes, films were dissolved in 1 mL of Milli Q water before addition to HVF.
# (§1) The HVF from the Instead Softcup® was removed by centrifugation of the conical tube for 10 min at 5,000 rpm. […] HVF was then removed from the cup and the pH of each HVF sample was measured with Fisher Alkacid pH filter strips (Fisher Scientific). All samples collected on a specific day were pooled to be used for the research studies. If the pH of the individual samples was higher than 5, the sample was not included in the pool but it was stored at -80°C for separate analysis. If the sample contained blood, it was immediately discarded. Samples were prepared as described in Table 1. […] Because of its high viscosity, HVF was measured by weight and not by volume. All solutions were prepared fresh and incubated with HVF (or water) at 37°C for specific periods of time (0, 2, 6, 12, 24, 48, and 72 h), unless specified otherwise. At each time point, the samples were centrifuged at 10,000 rpm for 10 min to separate the supernatant from the epithelial cells as described in the cell processing section. Both parts (supernatant and cells) were stored at -80 ± C until analyzed by LC-MS/MS. To evaluate the influence of freezing the fluid prior to the analysis, the last pool of HVF was divided into two samples: one used fresh (at the time of collection), and the other one stored at -80°C for a 3-month period. After that time period, HVF was thawed and processed for blank and RC-101 solution only, as described in Table 1. HVF samples collected with a high pH value indicative of BV were stored at -80°C as previously mentioned. After confirmation of BV on those fluid samples by Gram stain score, the fluid samples (HVF BV^+) were thawed, pooled, and processed as described in Table 1.
# (§2) At each time point, the sample was removed from the incubation chamber and centrifuged for 10 min at 10,000 rpm, at 4 ± C to separate the supernatant from cell pellet. Supernatant (100 μL) was added to microcentrifuge filters Ultracel YM-10 Microcon MWCO 10,000 (Millipore Corporation, Bedford, MA), which were pre-washed with Milli Q water to eliminate any trace of propylene glycol from the filters. Samples were centrifuged twice for 15 min at 8,500 rpm, at 4 ± C. The filtrate was collected and frozen at -80 ± C until further analysis. A solution of 3 M urea was added to the cell pellet (1:1 w/w) obtained from the first centrifugation, to lyse the cells. This mixture was vortexed three times for 30 sec, and then centrifuged for 10 min at 10,000 rpm, at 4 ± C. The supernatant obtained from the cell lysate was then added to microcentrifuge filters Ultracel YM-10 Microcon MWCO 10,000 pre-washed with Milli Q water. Samples were centrifuged twice for 15 min at 8,500 rpm, at 4 ± C. The filtrate was collected and frozen at -80 ± C until analysis.
# [3] = for detection of RC-101 by LC-MS/MS: frozen HVF (-80°C, 3 months) 1:1, 37°C, nanoLC-SRM MS, qualitative
# Experimental: as §1
# as §2, with “until analysis. […] Samples were thawed and added to PepCleanTM C-18 spin columns (Pierce Biotechnology Inc., Rockford, IL) for desalting, after column conditioning with acetonitrile:water (50:50) and equilibration with 0.1% trifluoroacetic acid. The column was washed three times with 0.1% trifluoroacetic acid, and RC-101 was eluted with acetonitrile:water (60:40) in 0.1% trifluoroacetic acid. Samples were dried in a speed vacuum CentriVap concentrator (LabConco Corp., Kansas City, MO) and resuspended with 200 μL of Milli Q water for LC-MS/MS analysis. Each sample described in Table 1 originated two sets of samples: one labeled as supernatant and the second one labeled as cells.” for “until analysis.”
# Integrated electrospray ionization (ESI)-capillary reversed-phase columns (75 μm inner diameter × 360 μm outer diameter × 100 mm length) packed with 5 μm 300 Å pore size Jupiter C18 reversed-phase stationary phase (Phenomenex) were prepared, as previously described. Solvent flow was supplied by a nanoflow HPLC system (Ultimate 3000, Dionex Corporation, Sunnyvale, CA).
sequence,measurement,setting,value
GICRCICGKGICRCICGR (bicyclic or more) [RC-101],change in RC-101 concentration over time (HPLC),"[1]; pH 3, 10 mM phosphate buffer, 10 days, n = 3, p > 0.83",no statistically significant decrease
same,change in RC-101 concentration over time (HPLC),"[1]; pH 4, 10 mM phosphate buffer, 10 days, n = 3, p > 0.83",no statistically significant decrease
same,change in RC-101 concentration over time (HPLC),"[1]; pH 7, 10 mM phosphate buffer, 10 days, n = 3, p > 0.83",no statistically significant decrease
same,change in RC-101 concentration over time (HPLC),"[1]; pH 12, 10 mM phosphate buffer, first 2 h, n = 3",significant decrease
same,detection of RC-101 by LC-MS/MS,[2]; 0 h,+
same,detection of RC-101 by LC-MS/MS,[2]; 2 h,+
same,detection of RC-101 by LC-MS/MS,[2]; 6 h,+
same,detection of RC-101 by LC-MS/MS,[2]; 12 h,+
same,detection of RC-101 by LC-MS/MS,[2]; 24 h,+
same,detection of RC-101 by LC-MS/MS,[2]; 48 h,+
same,detection of RC-101 by LC-MS/MS,[2]; 72 h,+
same,difference in the peptide after incubation with frozen fluid versus fresh HVF,"[3]; HVF stored at -80°C for 3 months, thawed, 1:1 with RC-101 100 μg/mL solution, 37°C, LC-MS/MS not quantitative",No detectable differences
same,detection of RC-101 by LC-MS/MS,[3]; 0 h,+
same,detection of RC-101 by LC-MS/MS,[3]; 2 h,+
same,detection of RC-101 by LC-MS/MS,[3]; 6 h,+
same,detection of RC-101 by LC-MS/MS,[3]; 12 h,+
same,detection of RC-101 by LC-MS/MS,[3]; 24 h,+
same,detection of RC-101 by LC-MS/MS,[3]; 48 h,+
